Assay results reported in ChEMBL document CHEMBL3351559, “Spectroscopic investigations of the binding mechanisms between antimicrobial peptides and membrane models of Pseudomonas aeruginosa and Klebsiella pneumoniae” (2014).
Converted amounts (≈) assume the structure as drawn. The source made the active and inactive calls. No cut-off for these calls is given here. *1 amine or outer side, *2 acyl side, *3 side chain or, on linkers, in order; H or OH if unused. Where a SMILES comes first, the peptide text is derived from it. [ ]: non-standard residue; d: D form. ξ: configuration not given here. Phe(4-NO2) = N[C@@H](Cc1ccc([N+](=O)[O-])cc1)C(=O)O; Pro(3ξ,4ξ-(CH2)4) = O=C(O)[C@H]1NCC2CCCCC21; X1 = O=C([C@H]1C2CCCCC2CN1[*:1])[*:2]; Tic = O=C(O)[C@@H]1Cc2ccccc2CN1; dTic = O=C(O)[C@H]1Cc2ccccc2CN1; dOrn = NCCC[C@@H](N)C(=O)O; Dab = NCC[C@H](N)C(=O)O; βAla = NCCC(=O)O

Assays:
Lipopolysaccharide (LPS) [1] = test: Binding affinity to Pseudomonas aeruginosa lipopolysaccharide incorporated into 80% POPC/20% POPG by Far-UV circular dichroism spectroscopy
Lipopolysaccharide (LPS) [2] = test: Binding affinity to Klebsiella pneumoniae lipopolysaccharide incorporated 75% POPC/20% POPE/5% POPG liposome by Far-UV circular dichroism spectroscopy
Pseudomonas aeruginosa = test: Antimicrobial activity against Pseudomonas aeruginosa PAO1; type: functional; settings: for MIC: Pseudomonas aeruginosa, PAO1
Lipopolysaccharide (LPS) [3] = test: Binding affinity to Klebsiella pneumoniae lipopolysaccharide assessed as normalized peak area of proton resonances in region of 1.5 to 0.5 ppm by […] relative to untreated control
Lipopolysaccharide (LPS) [4] = test: Binding affinity to Klebsiella pneumoniae lipopolysaccharide incorporated into 75% POPC/20% POPE/5% POPG liposomes by Far-UV circular dichroism spectroscopy; settings: Liposome
Klebsiella pneumoniae = test: Antimicrobial activity against Klebsiella pneumoniae BAMC 07-18; type: functional; settings: for MIC: Klebsiella pneumoniae, BAMC 07-18
Lipopolysaccharide (LPS) [5] = test: Binding affinity to SUV consisting Pseudomonas aeruginosa lipopolysaccharide by CD spectroscopy
Lipopolysaccharide (LPS) [6] = test: Binding affinity to Pseudomonas aeruginosa lipopolysaccharide assessed as normalized peak area of proton resonances in region of 1.5 to 0.5 ppm by […] relative to untreated control
Lipopolysaccharide (LPS) [7] = test: Binding affinity to Pseudomonas aeruginosa lipopolysaccharide incorporated into 59% POPC/20% POPE/21% POPG liposomes by Far-UV circular dichroism spectroscopy; settings: Liposome
Lipopolysaccharide (LPS) [8] = test: Binding affinity to Klebsiella pneumoniae lipopolysaccharide incorporated into phospholipid 75% POPC/20% POPE/5% POPG liposomes by Far-UV circular dichroism spectroscopy
Lipopolysaccharide (LPS) [9] = test: Binding affinity to Pseudomonas aeruginosa lipopolysaccharide at 0.1 mg by [1H] NMR spectroscopy
Lipopolysaccharide (LPS) [10] = test: Binding affinity to Pseudomonas aeruginosa lipopolysaccharide incorporated into 59% POPC/20% POPE/21% POPG by Far-UV circular dichroism spectroscopy
Lipopolysaccharide (LPS) [11] = test: Binding affinity to SUV consisting Klebsiella pneumoniae lipopolysaccharide by CD spectroscopy
Lipopolysaccharide (LPS) [12] = test: Binding affinity to Klebsiella pneumoniae lipopolysaccharide at 0.1 mg by [1H] NMR spectroscopy

Structure (SMILES)	Activity (Lipopolysaccharide (LPS) [1])	Activity (Lipopolysaccharide (LPS) [2])	MIC (Pseudomonas aeruginosa) [µM]	Activity (Lipopolysaccharide (LPS) [3]) [%]	Activity (Lipopolysaccharide (LPS) [4])	MIC (Klebsiella pneumoniae) [µM]	Activity (Lipopolysaccharide (LPS) [5])	Activity (Lipopolysaccharide (LPS) [6]) [%]	Activity (Lipopolysaccharide (LPS) [7])	Activity (Lipopolysaccharide (LPS) [8])	Activity (Lipopolysaccharide (LPS) [9])	Activity (Lipopolysaccharide (LPS) [10])	Activity (Lipopolysaccharide (LPS) [11])	Activity (Lipopolysaccharide (LPS) [12])	MBC (Pseudomonas aeruginosa) [µM]	MBC (Klebsiella pneumoniae) [µM]
CC(=O)NCC(=O)N[C@@H](Cc1ccccc1)C(=O)N1Cc2ccccc2C[C@H]1C(=O)N1CC2CCCCC2[C@H]1C(=O)NCC(=O)N[C@@H](CCCNC(=N)N)C(=O)N1Cc2ccccc2C[C@H]1C(=O)N1CC2CCCCC2[C@H]1C(=O)NCC(=O)N[C@@H](Cc1ccccc1)C(=O)N1Cc2ccccc2C[C@H]1C(=O)N1CC2CCCCC2[C@H]1C(=O)NCC(=O)N[C@@H](CCCNC(=N)N)C(=O)N1Cc2ccccc2C[C@H]1C(=O)N[C@@H](CCCNC(=N)N)C(=O)N[C@@H](CCCNC(=N)N)C(=O)N[C@@H](CCCNC(=N)N)C(=O)N[C@@H](CCCNC(=N)N)C(N)=O (stereo partly drawn) (Ac-GF[Tic][Pro(3ξ,4ξ-(CH2)4)]GR[Tic][Pro(3ξ,4ξ-(CH2)4)]GF[Tic][Pro(3ξ,4ξ-(CH2)4)]GR[Tic]RRRR-NH2)	Active	Active	38.4 (≈ 100 µg/mL)	81	Active	19.1 (≈ 49.8 µg/mL)	Active	39	Active	Active	Active	Active	Active	Active	> 100	38.4 (≈ 100 µg/mL)
CC(=O)NCC(=O)N[C@@H](Cc1ccc([N+](=O)[O-])cc1)C(=O)N1Cc2ccccc2C[C@H]1C(=O)N1CC2CCCCC2[C@H]1C(=O)NCC(=O)N[C@@H](CCCCN)C(=O)N1Cc2ccccc2C[C@H]1C(=O)N1CC2CCCCC2[C@H]1C(=O)NCC(=O)N[C@@H](Cc1ccc([N+](=O)[O-])cc1)C(=O)N1Cc2ccccc2C[C@H]1C(=O)N1CC2CCCCC2[C@H]1C(=O)NCC(=O)N[C@@H](CCCCN)C(=O)N1Cc2ccccc2C[C@H]1C(=O)N[C@@H](CCCCN)C(=O)N[C@@H](CCCCN)C(=O)N[C@@H](CCCCN)C(=O)N[C@@H](CCCCN)C(N)=O (stereo partly drawn) (Ac-G[Phe(4-NO2)][Tic][Pro(3ξ,4ξ-(CH2)4)]GK[Tic][Pro(3ξ,4ξ-(CH2)4)]G[Phe(4-NO2)][Tic][Pro(3ξ,4ξ-(CH2)4)]GK[Tic]KKKK-NH2)	Active	Active	19.6 (≈ 49.6 µg/mL)		Active	19.6 (≈ 49.6 µg/mL)	Active		Active	Active		Active	Active		39.1 (≈ 99 µg/mL)	19.6 (≈ 49.6 µg/mL)

More lines, in order of falling MIC (Pseudomonas aeruginosa), values ahead:

Activity (Lipopolysaccharide (LPS) [1])	Activity (Lipopolysaccharide (LPS) [2])	MIC (Pseudomonas aeruginosa) [µM]	Activity (Lipopolysaccharide (LPS) [3]) [%]	Activity (Lipopolysaccharide (LPS) [4])	MIC (Klebsiella pneumoniae) [µM]	Activity (Lipopolysaccharide (LPS) [5])	Activity (Lipopolysaccharide (LPS) [6]) [%]	Activity (Lipopolysaccharide (LPS) [7])	Activity (Lipopolysaccharide (LPS) [8])	Activity (Lipopolysaccharide (LPS) [9])	Activity (Lipopolysaccharide (LPS) [10])	Activity (Lipopolysaccharide (LPS) [11])	Activity (Lipopolysaccharide (LPS) [12])	Structure (SMILES)	MBC (Pseudomonas aeruginosa) [µM]	MBC (Klebsiella pneumoniae) [µM]
Active	Active	40 (≈ 97.6 µg/mL)	81	Active	40 (≈ 97.6 µg/mL)	Active	33	Active	Active	Active	Active	Active	Active	CC(=O)NCC(=O)N[C@@H](Cc1ccccc1)C(=O)N1Cc2ccccc2C[C@H]1C(=O)N1CC2CCCCC2[C@H]1C(=O)NCC(=O)N[C@@H](CCCCN)C(=O)N1Cc2ccccc2C[C@H]1C(=O)N1CC2CCCCC2[C@H]1C(=O)NCC(=O)N[C@@H](Cc1ccccc1)C(=O)N1Cc2ccccc2C[C@H]1C(=O)N1CC2CCCCC2[C@H]1C(=O)NCC(=O)N[C@@H](CCCCN)C(=O)N1Cc2ccccc2C[C@H]1C(=O)N[C@@H](CCCCN)C(=O)N[C@@H](CCCCN)C(=O)N[C@@H](CCCCN)C(=O)N[C@@H](CCCCN)C(N)=O (stereo partly drawn) (Ac-GF[Tic][Pro(3ξ,4ξ-(CH2)4)]GK[Tic][Pro(3ξ,4ξ-(CH2)4)]GF[Tic][Pro(3ξ,4ξ-(CH2)4)]GK[Tic]KKKK-NH2)	40 (≈ 97.6 µg/mL)	40 (≈ 97.6 µg/mL)
Active	Active	40 (≈ 99.9 µg/mL)		Active	40 (≈ 99.9 µg/mL)	Active		Active	Active		Active	Active		CC(=O)NCCC(=O)N[C@@H](Cc1ccccc1)C(=O)N1Cc2ccccc2C[C@H]1C(=O)N1CC2CCCCC2[C@H]1C(=O)NCCC(=O)N[C@@H](CCCCN)C(=O)N1Cc2ccccc2C[C@H]1C(=O)N1CC2CCCCC2[C@H]1C(=O)NCCC(=O)N[C@@H](Cc1ccccc1)C(=O)N1Cc2ccccc2C[C@H]1C(=O)N1CC2CCCCC2[C@H]1C(=O)NCCC(=O)N[C@@H](CCCCN)C(=O)N1Cc2ccccc2C[C@H]1C(=O)N[C@@H](CCCCN)C(=O)N[C@@H](CCCCN)C(=O)N[C@@H](CCCCN)C(=O)N[C@@H](CCCCN)C(N)=O (stereo partly drawn) (Ac-[βAla]F[Tic][Pro(3ξ,4ξ-(CH2)4)][βAla]K[Tic][Pro(3ξ,4ξ-(CH2)4)][βAla]F[Tic][Pro(3ξ,4ξ-(CH2)4)][βAla]K[Tic]KKKK-NH2)	40 (≈ 99.9 µg/mL)	40 (≈ 99.9 µg/mL)
Active	Active	21 (≈ 49.5 µg/mL)	93	Active	21 (≈ 49.5 µg/mL)	Active	36	Active	Active	Active	Active	Active	Active	CC(=O)NCC(=O)N[C@@H](Cc1ccccc1)C(=O)N1Cc2ccccc2C[C@H]1C(=O)N1CC2CCCCC2[C@@H]1C(=O)NCC(=O)N[C@H](CCCN)C(=O)N1Cc2ccccc2C[C@@H]1C(=O)N1CC2CCCCC2[C@H]1C(=O)NCC(=O)N[C@H](Cc1ccccc1)C(=O)N1Cc2ccccc2C[C@@H]1C(=O)N1CC2CCCCC2[C@@H]1C(=O)NCC(=O)N[C@H](CCCN)C(=O)N1Cc2ccccc2C[C@@H]1C(=O)N[C@H](CCCN)C(=O)N[C@H](CCCN)C(=O)N[C@H](CCCN)C(=O)N[C@H](CCCN)C(N)=O (stereo partly drawn) (Ac-GF[Tic][X1]G[dOrn][dTic][Pro(3ξ,4ξ-(CH2)4)]G[dF][dTic][X1]G[dOrn][dTic][dOrn][dOrn][dOrn][dOrn]-NH2)	21 (≈ 49.5 µg/mL)	21 (≈ 49.5 µg/mL)
Active	Active	5.5 (≈ 12.5 µg/mL)	89	Active	5.5 (≈ 12.5 µg/mL)	Active	29	Active	Active	Active	Active	Active	Active	CC(=O)NCC(=O)N[C@@H](Cc1ccccc1)C(=O)N1Cc2ccccc2C[C@H]1C(=O)N1CC2CCCCC2[C@H]1C(=O)NCC(=O)N[C@@H](CCN)C(=O)N1Cc2ccccc2C[C@H]1C(=O)N1CC2CCCCC2[C@H]1C(=O)NCC(=O)N[C@@H](Cc1ccccc1)C(=O)N1Cc2ccccc2C[C@H]1C(=O)N1CC2CCCCC2[C@H]1C(=O)NCC(=O)N[C@@H](CCN)C(=O)N1Cc2ccccc2C[C@H]1C(=O)N[C@@H](CCN)C(=O)N[C@@H](CCN)C(=O)N[C@@H](CCN)C(=O)N[C@@H](CCN)C(N)=O (stereo partly drawn) (Ac-GF[Tic][Pro(3ξ,4ξ-(CH2)4)]G[Dab][Tic][Pro(3ξ,4ξ-(CH2)4)]GF[Tic][Pro(3ξ,4ξ-(CH2)4)]G[Dab][Tic][Dab][Dab][Dab][Dab]-NH2)	11 (≈ 25 µg/mL)	5.5 (≈ 12.5 µg/mL)
